In patent US8129527B2, “Analogs of dehydrophenylahistins and their therapeutic use” (Nereus Pharmacuticals, Inc., priority 2006, dated 2012):
Read-outs that look alike come from different tables or passages of the source.

Columns and labels:
Lyn (mouse) = Lyn (mouse) (Mus musculus, UniProt P25911); settings: ATP 10 μM
[1] = system: HL-60/MX-2 (Mitoxantrone-Resistant); experiment: Drug resistant cell line pair, cytotoxicity (Example 10B); assay type: cell-based, human; settings: Homo sapiens, HL60/MX2; HL-60 Resistant (HL-60/MX-2)
Source text: (§1) 2) Human Acute Promyelocytic Leukemia Cell Line Pair: HL-60 (Mitoxantrone-Sensitive) and HL-60/MX-2 (Mitoxantrone-Resistant)

[2] = system: B16-F10 murine melanoma cells; experiment: B16-F10 Metastatic Murine Melanoma Model; assay type: in vivo, B6D2F1 mice; settings: monotherapy, lung surface metastases day 16
Description: (§2) The animals used were: female nude mice (nu/ni) (MDA-231 study) or B6D2F1 (B16-F10 studies) mice between 5 and 6 weeks of age (˜20 g, Harlan); group size was 10 mice per group unless otherwise indicated.
(§3) The cell lines used were: MDA-MB-231 human breast tumor and B16-F10 murine melanoma cells.
(§4) NPI compounds were administered as monotherapy via the intraperitoneal route at the doses indicated for the individual study; for the combination studies the selected reference chemotherapy agents were injected 15-30 min prior to the NPI compound.
Mice received B16-F10 cells (prepared from an in vitro cell culture of B16-F10 cells) by the iv route on Day 0. On Day 1 mice were randomized into treatment and control groups and treatment commenced. Mice were weighed twice weekly, starting on Day 1. All mice are sacrificed on Day 16, the lungs removed, weighed and the surface colonies counted. Results are expressed as mean colonies of treated mice/mean colonies of control mice (T/C)×100%). The metastasis growth inhibition (MGI) is this number subtracted from 100%. Paclitaxel was the standard chemotherapy agent used in this study.
In this model unless otherwise noted for the individual study, the test compounds were administered via the intraperitoneal route on Days 1-5 (qdx5); paclitaxel was administered intravenously on Days 1-5(qdx5).

[3] = system: MDA-231 human breast tumor; experiment: MDA-231 Human Breast Tumor Orthotopic Xenograft Model (mammary fat pad); assay type: in vivo, nude mice; settings: KPU-2 7.5 mg/kg ip q3dx5 with paclitaxel 16 mg/kg ip qdx5, three weeks
Description: as §2, §3, §4
Female nude mice were injected in the mammary fat pad with 2×10^6 MDA-231 cells harvested from in vitro cell culture. When the tumor size reached 5 mm×5 mm (about 14-28 days) the animals were matched into treatment and control groups. The study then proceeded as described for the HT-29 model, using paclitaxel as the standard chemotherapy agent.
In this model unless otherwise noted for the individual study, the test compounds were administered via the intraperitoneal route on Days 1, 4, 8, 11 and 15 (q3dx5); paclitaxel was administered via the intraperitoneal route on Days 1-5 (qdx5).
This model involves the placement of the human tumor tissue into the mouse mammary fat pad, a surrogate of the natural environment. In this manner the possibility of a positive effect due to a specific action on the subcutaneous vascular bed is avoided.

[4] = system: NCI-H292 (human non-small cell lung tumor); experiment: Tumor panel screen cytotoxicity (Example 10A); assay type: cell-based; settings: maximum cytotoxic effect
Source text: (§5) Cells were maintained at subconfluent densities in their respective culture media.

[5] = system: OVCAR-3 (human ovarian tumor); experiment: Tumor panel screen cytotoxicity (Example 10A); assay type: cell-based; settings: OVCAR-3 Ovary
Source text: as §5

[6] = system: MDA-MB-231 (human breast tumor); experiment: Tumor panel screen cytotoxicity (Example 10A); assay type: cell-based; settings: MDA-MB-231 Breast
Source text: as §5

[7] = system: PC3 (human prostate tumor); experiment: Tumor panel screen cytotoxicity (Example 10A); assay type: cell-based; settings: PC-3 Prostate
Source text: as §5

[8] = system: B16-F10 (murine melanoma); experiment: Tumor panel screen cytotoxicity (Example 10A); assay type: cell-based
Source text: as §5

[9] = system: CCD-27sk (normal human fibroblast); experiment: Tumor panel screen cytotoxicity (Example 10A); assay type: cell-based; settings: CCD-27sk Fibroblast
Source text: as §5

HT29 (human colon tumor) = experiment: Tumor panel screen cytotoxicity (Example 10A); assay type: cell-based
Source text: as §5

[10] = system: HL-60 (Mitoxantrone-Sensitive) human acute promyelocytic leukemia; experiment: Drug resistant cell line pair, cytotoxicity (Example 10B); assay type: cell-based; settings: HL-60 Sensitive
Source text: as §1

[11] = system: human prostate tumor cells; experiment: Induction of apoptosis, morphological changes; assay type: cell-based
Source text: Apoptosis and its dysregulation play an important role in oncology; the selective induction of the programmed cell death cycle in tumor cells is the goal of many chemotherapeutic drug discovery programs.
The characteristic signs of apoptotic cell death include cell membrane blebbing, disruption of nuclei, cell shrinkage and condensation and finally cell death, very distinctive from necrotic cell death. […] A similar finding was also clear in the treatment of HuVEC cells with KPU-2.

CDK1/Cyclin B (human) = CDK1/Cyclin B (human) (Homo sapiens, UniProt P06493); experiment: biochemical
CDK1/Cyclin B (human), sequence (P06493 whole entry): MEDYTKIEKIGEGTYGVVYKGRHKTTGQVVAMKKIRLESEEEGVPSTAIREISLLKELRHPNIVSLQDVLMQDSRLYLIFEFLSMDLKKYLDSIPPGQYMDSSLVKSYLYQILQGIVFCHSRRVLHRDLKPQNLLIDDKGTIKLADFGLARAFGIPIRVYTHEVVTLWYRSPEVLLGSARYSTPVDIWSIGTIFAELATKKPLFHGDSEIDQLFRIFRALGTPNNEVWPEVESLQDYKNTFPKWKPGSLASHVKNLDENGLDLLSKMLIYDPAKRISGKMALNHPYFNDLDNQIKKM
CDK1/Cyclin B (human), sequence (P14635 whole entry partner): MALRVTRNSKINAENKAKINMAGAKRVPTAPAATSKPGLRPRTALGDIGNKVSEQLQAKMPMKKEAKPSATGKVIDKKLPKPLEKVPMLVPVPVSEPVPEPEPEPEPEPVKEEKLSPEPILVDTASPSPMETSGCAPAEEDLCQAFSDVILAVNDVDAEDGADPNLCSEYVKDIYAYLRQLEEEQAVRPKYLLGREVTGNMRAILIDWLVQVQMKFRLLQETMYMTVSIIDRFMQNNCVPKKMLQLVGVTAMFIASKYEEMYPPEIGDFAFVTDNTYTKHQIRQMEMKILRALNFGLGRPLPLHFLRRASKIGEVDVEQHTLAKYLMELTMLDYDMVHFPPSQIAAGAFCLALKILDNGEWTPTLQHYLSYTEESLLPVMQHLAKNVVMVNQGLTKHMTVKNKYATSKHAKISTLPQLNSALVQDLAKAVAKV

[12] = system: DU-145 human prostate tumor; experiment: DU-145 Human Prostate Tumor Xenograft Model; assay type: in vivo, nude mice; settings: KPU-2 plus taxotere, treatment Days 20-27
Description: Animals used were (exceptions are indicated for individual studies): female nude mice (nu/nu) between 5 and 6 weeks of age (˜20 g, Harlan); group size was 9-10 mice per group unless otherwise indicated.
Selected novel compounds were administered as monotherapy via the intraperitoneal (i.p.) route at the doses indicated for the individual study; for the combination studies the selected reference chemotherapy agents were injected 15-30 min prior to the compound.
Saline dilutions are used to achieve the injection concentrations used for the reference compounds.
When the tumors reached 5 mm×5 mm (at about 13-17 days) the animals were matched into treatment and control groups.
In this model unless otherwise noted for the individual study, test compounds were administered via the intraperitoneal route on Days 1, 3, 5, 8 and 11 (q3dx5); taxotere was administered intravenously on Days 1, 3 and 5 (q2dx3).

[13] = system: Jurkat cells (human T cell leukemia line); experiment: DNA fragmentation (DNA laddering); assay type: cell-based
Source text: A late stage characteristic of apoptosis is internucleosomal DNA cleavage that results in a distinctive ladder pattern that can be visualized by gel electrophoresis.

c-RAF (human) = c-RAF (human) (Homo sapiens, UniProt P04049); settings: ATP 10 μM
c-RAF (human), sequence (P04049 whole entry): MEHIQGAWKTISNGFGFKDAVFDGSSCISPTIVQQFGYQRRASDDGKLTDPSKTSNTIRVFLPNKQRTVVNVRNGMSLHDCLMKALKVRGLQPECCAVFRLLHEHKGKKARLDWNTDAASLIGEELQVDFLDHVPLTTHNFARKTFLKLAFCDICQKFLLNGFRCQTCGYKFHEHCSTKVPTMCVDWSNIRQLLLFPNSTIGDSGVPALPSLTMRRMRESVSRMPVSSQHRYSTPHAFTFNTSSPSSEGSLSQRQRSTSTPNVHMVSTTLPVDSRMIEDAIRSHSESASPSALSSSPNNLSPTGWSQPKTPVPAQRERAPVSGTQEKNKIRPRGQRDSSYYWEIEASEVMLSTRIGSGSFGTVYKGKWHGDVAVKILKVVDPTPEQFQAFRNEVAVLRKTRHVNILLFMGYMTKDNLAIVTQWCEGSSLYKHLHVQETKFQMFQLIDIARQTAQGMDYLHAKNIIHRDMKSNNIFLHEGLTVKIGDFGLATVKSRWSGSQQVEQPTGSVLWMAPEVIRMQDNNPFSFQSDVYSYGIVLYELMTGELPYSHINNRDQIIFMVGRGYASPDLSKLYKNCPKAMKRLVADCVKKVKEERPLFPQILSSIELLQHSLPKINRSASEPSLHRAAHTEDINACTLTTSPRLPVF

HT-29 human colon cells = experiment: Tumor cytotoxicity assay, resazurin fluorescence, 48 h (Example 6); assay type: cell-based; settings: Homo sapiens
[14] = system: MCF-7 (Taxol Sensitive) human breast carcinoma; experiment: Drug resistant cell line pair, cytotoxicity (Example 10B); assay type: cell-based; settings: Homo sapiens, MCF7/Taxol, read-out: MCF-7 Sensitive IC50 nM
Source text: (§6) 3). Human Breast Carcinoma Cell Line Pair: MCF-7 (Taxol Sensitive) and MCF-7/ADR (Taxol Resistant)

[15] = system: MCF-7/ADR (Taxol Resistant) human breast carcinoma; experiment: as above; assay type: cell-based; settings: Homo sapiens, NCI/ADR-RES, read-out: MCF-7/ADR Resistant IC 50 nM
Source text: as §6

Lyn (mouse), sequence (P25911 whole entry): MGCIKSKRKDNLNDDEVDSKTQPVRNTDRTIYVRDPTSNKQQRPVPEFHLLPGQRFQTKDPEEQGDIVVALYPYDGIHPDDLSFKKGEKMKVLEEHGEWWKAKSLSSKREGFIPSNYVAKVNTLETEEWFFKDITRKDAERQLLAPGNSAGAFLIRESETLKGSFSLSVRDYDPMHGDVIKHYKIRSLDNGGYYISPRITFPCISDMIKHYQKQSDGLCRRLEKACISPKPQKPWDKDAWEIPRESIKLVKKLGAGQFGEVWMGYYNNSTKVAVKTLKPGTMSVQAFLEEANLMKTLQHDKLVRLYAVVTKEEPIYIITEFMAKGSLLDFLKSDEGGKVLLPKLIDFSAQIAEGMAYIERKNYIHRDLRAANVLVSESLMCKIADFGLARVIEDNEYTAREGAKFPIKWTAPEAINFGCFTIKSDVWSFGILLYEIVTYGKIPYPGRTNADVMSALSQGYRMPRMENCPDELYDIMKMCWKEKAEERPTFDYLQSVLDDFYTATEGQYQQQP

In the case of `CC(C)(C)c1[nH]cnc1/C=c1\[nH]c(=O)/c(=C/c2ccccc2)[nH]c1=O` [KPU-2, tBu-dehydro-PLH], the IC50 (Lyn (mouse)) is reported as 11.1 µM, the IC50 [1] is reported as 0.00817 µM and the “MGI (metastasis growth inhibition)” value [2] is reported as 41.6%. For the same compound, the “inhibition of tumor growth” value [3] was “significant inhibition of tumor growth”, the “% Cytotoxicity Mean” value [4] was 70.5% and the IC50 ([5]; Homo sapiens) was over 20 µM. For the same compound, the “% Cytotoxicity Mean” value ([5]; maximum cytotoxic effect) was 45.8%, the IC50 ([6]; Homo sapiens) was 0.0138 µM and the “% Cytotoxicity Mean” value ([6]; maximum cytotoxic effect) was 56.7%. For the same compound, the IC50 ([7]; Homo sapiens) was 0.0134 µM, the “% Cytotoxicity Mean” value ([7]; maximum cytotoxic effect) was 60.3% and the IC50 ([8]; Mus musculus) was 0.0371 µM. For the same compound, the “% Cytotoxicity Mean” value ([8]; maximum cytotoxic effect) was 71.8%, the “% Cytotoxicity Mean” value ([9]; maximum cytotoxic effect) was 64.3% and the IC50 ([9]; Homo sapiens) was 0.0092 µM. For the same compound, the “% Cytotoxicity Mean” value (HT29 (human colon tumor); HT-29 Colon, maximum cytotoxic effect) was 82.5%, the IC50 (HT29 (human colon tumor); Homo sapiens, HT-29 Colon) was 0.0098 µM and the “potency on the HT-29 tumor cell line” value (HT29 (human colon tumor); in words) was “low nanomolar range”. For the same compound, the IC50 [10] was 0.0064 µM, the “morphological changes of apoptosis” value [11] was “induced the typical morphological changes associated with early stages of apoptosis” and the IC50 (CDK1/Cyclin B (human)) was 10.1 µM. The “apparent TGI” value [12] was over 58%, the “concentration inducing DNA laddering” value [13] was 1 nM and the IC50 (c-RAF (human)) was 8.9 µM. The EC50 (HT-29 human colon cells; HT-29, Table 6, proliferation of HT-29 cells) was 13 nM, the EC50 (HT-29 human colon cells; HT-29, Table 9, summary of modification at the o-position, HT-29) was 48 nM and the EC50 (HT-29 human colon cells; HT-29, Table 10, summary of modification at the m-position, HT-29) was 48 nM. It also gave an EC50 (HT-29 human colon cells; HT-29, read-out: EC50 (nM) HT-29, Table 2) of 13 nM, an EC50 (HT-29 human colon cells; HT-29, read-out: EC50 (nM) HT-29, Table 3) of 13 nM and an EC50 (HT-29 human colon cells; HT-29, Table 5, synthetic potent dehydroPLH derivatives) of 13 nM. The IC50 [14] was 39.6 nM and the IC50 [15] was 27.4 nM.
